Measurements published in ChEMBL document CHEMBL4507319 (2021).

What was measured:
[1] = molecular target: 5'-AMP-activated protein kinase catalytic subunit alpha-1 (Homo sapiens, UniProt Q13131); details: Compound concentration 1000.0 nM
[2] = molecular target: Mitogen-activated protein kinase kinase kinase 6 (Homo sapiens) (UniProt O95382); details: Compound concentration 1000.0 nM
[3] = molecular target: T1, Serine/threonine-protein kinase BRSK2 (Homo sapiens) (UniProt Q8IWQ3); details: Compound concentration 1000.0 nM
T1 sequence (whole entry): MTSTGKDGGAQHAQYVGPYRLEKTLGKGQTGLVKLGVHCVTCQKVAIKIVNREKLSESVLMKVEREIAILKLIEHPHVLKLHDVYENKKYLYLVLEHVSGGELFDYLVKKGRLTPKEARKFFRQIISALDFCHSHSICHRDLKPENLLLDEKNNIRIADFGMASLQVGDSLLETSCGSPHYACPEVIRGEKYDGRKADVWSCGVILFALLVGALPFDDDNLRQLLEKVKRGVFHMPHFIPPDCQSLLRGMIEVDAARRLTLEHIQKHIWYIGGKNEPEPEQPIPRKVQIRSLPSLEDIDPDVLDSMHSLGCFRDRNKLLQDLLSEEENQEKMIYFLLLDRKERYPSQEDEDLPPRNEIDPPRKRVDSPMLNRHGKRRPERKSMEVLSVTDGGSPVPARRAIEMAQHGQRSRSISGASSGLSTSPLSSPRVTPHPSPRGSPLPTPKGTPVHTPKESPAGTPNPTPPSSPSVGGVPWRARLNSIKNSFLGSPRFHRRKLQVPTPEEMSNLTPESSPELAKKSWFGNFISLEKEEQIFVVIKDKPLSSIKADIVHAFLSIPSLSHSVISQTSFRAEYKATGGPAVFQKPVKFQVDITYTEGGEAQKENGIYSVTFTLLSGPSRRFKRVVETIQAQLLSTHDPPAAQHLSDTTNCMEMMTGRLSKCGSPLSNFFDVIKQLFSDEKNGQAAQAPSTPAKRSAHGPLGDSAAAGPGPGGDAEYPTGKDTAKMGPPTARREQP

[4] = molecular target: Death-associated protein kinase 3 (Homo sapiens) (UniProt O43293); details: Compound concentration 1000.0 nM
[5] = system: Epidermal growth factor receptor (Homo sapiens), P00533 [G719C]; details: Compound concentration 1000.0 nM
[6] = system: Epidermal growth factor receptor (Homo sapiens), P00533 [T790M]; details: Compound concentration 1000.0 nM
[7] = molecular target: Mitogen-activated protein kinase 3 (Homo sapiens) (UniProt P27361); details: Compound concentration 1000.0 nM
[8] = molecular target: Receptor-type tyrosine-protein kinase FLT3 (Homo sapiens) (UniProt P36888); details: Compound concentration 1000.0 nM
[9] = molecular target: Glycogen synthase kinase-3 alpha (Homo sapiens) (UniProt P49840); details: Compound concentration 1000.0 nM
[10] = molecular target: Insulin receptor (Homo sapiens) (UniProt P06213); details: Compound concentration 1000.0 nM
[11] = molecular target: Mast/stem cell growth factor receptor Kit (Homo sapiens) (UniProt P10721); details: Compound concentration 1000.0 nM
[12] = molecular target: Microtubule-associated serine/threonine-protein kinase 1 (Homo sapiens) (UniProt Q9Y2H9); details: Compound concentration 1000.0 nM
[13] = molecular target: Misshapen-like kinase 1 (Homo sapiens) (UniProt Q8N4C8); details: Compound concentration 1000.0 nM
[14] = molecular target: Serine/threonine-protein kinase 38 (Homo sapiens) (UniProt Q15208); details: Compound concentration 1000.0 nM
[15] = molecular target: Serine/threonine-protein kinase Nek10 (Homo sapiens) (UniProt Q6ZWH5); details: Compound concentration 1000.0 nM
[16] = molecular target: Serine/threonine-protein kinase OSR1 (Homo sapiens) (UniProt O95747); details: Compound concentration 1000.0 nM
[17] = molecular target: Serine/threonine-protein kinase PAK 5 (Homo sapiens) (UniProt Q9P286); details: Compound concentration 1000.0 nM
[18] = molecular target: Phosphatidylinositol 4-phosphate 3-kinase C2 domain-containing subunit beta (Homo sapiens) (UniProt O00750); details: Compound concentration 1000.0 nM
[19] = system: Phosphatidylinositol 4,5-bisphosphate 3-kinase catalytic subunit alpha isoform (Homo sapiens), P42336 [C420R]; details: Compound concentration 1000.0 nM
[20] = molecular target: Protein kinase C delta type (Homo sapiens) (UniProt Q05655); details: Compound concentration 1000.0 nM
[21] = molecular target: Dual serine/threonine and tyrosine protein kinase (Homo sapiens) (UniProt Q6XUX3); details: Compound concentration 1000.0 nM
[22] = molecular target: Mitogen-activated protein kinase kinase kinase 19 (Homo sapiens) (UniProt Q56UN5); details: Compound concentration 1000.0 nM
[23] = molecular target: T2, Tyrosine-protein kinase ZAP-70 (Homo sapiens) (UniProt P43403); details: Compound concentration 1000.0 nM
T2 sequence (whole entry): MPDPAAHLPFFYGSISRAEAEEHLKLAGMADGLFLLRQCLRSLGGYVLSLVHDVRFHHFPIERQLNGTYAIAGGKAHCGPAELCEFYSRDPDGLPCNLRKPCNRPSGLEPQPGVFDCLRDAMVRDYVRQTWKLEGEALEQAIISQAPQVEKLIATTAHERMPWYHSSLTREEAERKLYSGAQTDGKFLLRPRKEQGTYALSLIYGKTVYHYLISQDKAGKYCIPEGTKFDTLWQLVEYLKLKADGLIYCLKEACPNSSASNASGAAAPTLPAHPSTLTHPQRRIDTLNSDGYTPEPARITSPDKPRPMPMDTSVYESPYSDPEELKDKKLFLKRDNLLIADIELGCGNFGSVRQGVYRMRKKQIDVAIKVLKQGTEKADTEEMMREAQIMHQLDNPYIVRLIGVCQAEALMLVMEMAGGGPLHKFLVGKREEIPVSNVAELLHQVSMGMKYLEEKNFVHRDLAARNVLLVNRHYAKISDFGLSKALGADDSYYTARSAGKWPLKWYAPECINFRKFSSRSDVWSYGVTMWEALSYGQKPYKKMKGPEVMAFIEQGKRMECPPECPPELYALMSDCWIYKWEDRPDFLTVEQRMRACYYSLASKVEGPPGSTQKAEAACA

[24] = molecular target: GABA-A receptor; anion channel (Rattus norvegicus) (UniProt O09028+P15431+P18506+P18508+P19969+P20236+P23574+P23576+P28471+P28473+P30191+P62813+P63079+P63138+Q91ZM7+Q9ES14); details: Compound concentration 10.0 uM
[25] = molecular target: Muscarinic acetylcholine receptor M4 (Homo sapiens) (UniProt P08173); details: Compound concentration 10.0 uM
Muscarinic acetylcholine receptor M4 (Homo sapiens), sequence (P08173 whole entry): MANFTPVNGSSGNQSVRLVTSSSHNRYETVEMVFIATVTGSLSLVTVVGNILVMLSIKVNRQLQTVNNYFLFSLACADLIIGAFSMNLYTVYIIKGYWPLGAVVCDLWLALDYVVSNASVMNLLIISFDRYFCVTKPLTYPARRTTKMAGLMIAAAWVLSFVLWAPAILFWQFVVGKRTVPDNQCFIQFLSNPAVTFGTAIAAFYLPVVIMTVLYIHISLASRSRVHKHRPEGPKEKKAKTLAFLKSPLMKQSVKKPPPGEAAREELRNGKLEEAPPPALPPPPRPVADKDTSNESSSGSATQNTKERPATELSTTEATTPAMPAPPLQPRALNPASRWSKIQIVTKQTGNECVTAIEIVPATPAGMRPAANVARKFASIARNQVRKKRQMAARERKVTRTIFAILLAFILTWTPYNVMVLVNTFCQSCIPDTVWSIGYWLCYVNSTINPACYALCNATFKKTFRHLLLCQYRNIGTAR

Serine/threonine-protein kinase OSR1 (Homo sapiens), sequence (O95747 2-527 limits assumed): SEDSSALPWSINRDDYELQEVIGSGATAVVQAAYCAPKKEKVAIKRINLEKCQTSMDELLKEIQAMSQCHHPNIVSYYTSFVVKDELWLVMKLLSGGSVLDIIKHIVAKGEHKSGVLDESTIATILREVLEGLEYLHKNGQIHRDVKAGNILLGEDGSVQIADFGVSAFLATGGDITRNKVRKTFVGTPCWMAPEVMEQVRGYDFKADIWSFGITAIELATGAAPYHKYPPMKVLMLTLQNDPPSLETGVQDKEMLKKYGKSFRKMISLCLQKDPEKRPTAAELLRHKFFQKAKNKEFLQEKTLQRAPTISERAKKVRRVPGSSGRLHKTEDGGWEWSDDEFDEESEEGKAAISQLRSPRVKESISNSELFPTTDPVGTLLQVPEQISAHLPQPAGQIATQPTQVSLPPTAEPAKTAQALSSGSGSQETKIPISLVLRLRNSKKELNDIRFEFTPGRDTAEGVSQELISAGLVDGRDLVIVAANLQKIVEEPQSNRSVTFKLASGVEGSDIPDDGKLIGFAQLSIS
Protein kinase C delta type (Homo sapiens), sequence (Q05655 whole entry, looked up): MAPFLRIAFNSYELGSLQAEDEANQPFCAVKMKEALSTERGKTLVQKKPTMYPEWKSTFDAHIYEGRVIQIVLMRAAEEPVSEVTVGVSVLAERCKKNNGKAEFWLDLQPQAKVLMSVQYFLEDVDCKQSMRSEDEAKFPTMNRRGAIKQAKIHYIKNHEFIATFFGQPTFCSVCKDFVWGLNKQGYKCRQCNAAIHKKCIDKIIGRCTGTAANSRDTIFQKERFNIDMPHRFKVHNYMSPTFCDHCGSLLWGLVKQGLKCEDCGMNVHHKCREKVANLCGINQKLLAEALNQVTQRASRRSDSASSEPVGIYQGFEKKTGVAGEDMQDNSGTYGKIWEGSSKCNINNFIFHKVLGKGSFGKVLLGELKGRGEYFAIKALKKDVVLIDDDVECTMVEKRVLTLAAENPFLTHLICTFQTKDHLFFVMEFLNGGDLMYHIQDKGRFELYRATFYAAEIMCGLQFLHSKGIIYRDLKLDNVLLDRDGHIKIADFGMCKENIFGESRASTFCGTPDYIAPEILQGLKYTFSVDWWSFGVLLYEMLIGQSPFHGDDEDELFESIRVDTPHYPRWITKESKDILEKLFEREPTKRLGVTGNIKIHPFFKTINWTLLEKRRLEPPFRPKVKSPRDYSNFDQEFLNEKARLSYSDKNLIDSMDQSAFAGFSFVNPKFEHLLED
Mitogen-activated protein kinase kinase kinase 6 (Homo sapiens), sequence (O95382 whole entry): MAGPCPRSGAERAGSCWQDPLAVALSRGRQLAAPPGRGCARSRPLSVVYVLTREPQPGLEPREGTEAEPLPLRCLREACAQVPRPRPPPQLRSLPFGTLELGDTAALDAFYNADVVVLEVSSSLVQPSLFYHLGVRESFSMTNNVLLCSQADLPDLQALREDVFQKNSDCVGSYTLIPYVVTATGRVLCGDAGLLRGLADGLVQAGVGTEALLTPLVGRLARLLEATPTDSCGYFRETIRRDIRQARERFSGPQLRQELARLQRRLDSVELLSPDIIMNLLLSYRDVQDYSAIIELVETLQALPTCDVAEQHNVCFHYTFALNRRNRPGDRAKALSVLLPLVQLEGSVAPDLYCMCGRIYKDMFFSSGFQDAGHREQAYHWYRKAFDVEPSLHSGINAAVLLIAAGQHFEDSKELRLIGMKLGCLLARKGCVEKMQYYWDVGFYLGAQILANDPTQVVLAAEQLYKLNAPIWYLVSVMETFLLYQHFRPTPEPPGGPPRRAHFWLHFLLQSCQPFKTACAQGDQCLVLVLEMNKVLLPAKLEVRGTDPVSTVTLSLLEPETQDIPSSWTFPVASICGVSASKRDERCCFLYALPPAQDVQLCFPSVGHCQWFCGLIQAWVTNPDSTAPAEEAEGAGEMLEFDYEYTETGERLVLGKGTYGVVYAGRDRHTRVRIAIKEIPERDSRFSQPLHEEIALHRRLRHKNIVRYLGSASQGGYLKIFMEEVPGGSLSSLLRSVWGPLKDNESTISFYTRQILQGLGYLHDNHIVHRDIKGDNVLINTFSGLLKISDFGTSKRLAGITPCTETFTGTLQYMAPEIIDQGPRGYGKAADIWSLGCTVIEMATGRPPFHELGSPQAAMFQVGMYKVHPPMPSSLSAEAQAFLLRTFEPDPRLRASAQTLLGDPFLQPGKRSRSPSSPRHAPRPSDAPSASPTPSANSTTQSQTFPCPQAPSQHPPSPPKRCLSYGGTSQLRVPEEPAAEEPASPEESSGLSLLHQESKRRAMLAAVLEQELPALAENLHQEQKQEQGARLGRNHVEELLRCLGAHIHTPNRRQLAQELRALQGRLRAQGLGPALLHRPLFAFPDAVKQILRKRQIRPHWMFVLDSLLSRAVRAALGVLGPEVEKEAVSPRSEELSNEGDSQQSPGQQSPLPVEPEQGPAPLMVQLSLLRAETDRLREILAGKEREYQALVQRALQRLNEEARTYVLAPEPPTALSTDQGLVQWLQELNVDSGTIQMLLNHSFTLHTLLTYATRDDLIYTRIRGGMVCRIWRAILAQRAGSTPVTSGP
Misshapen-like kinase 1 (Homo sapiens), sequence (Q8N4C8 whole entry, looked up): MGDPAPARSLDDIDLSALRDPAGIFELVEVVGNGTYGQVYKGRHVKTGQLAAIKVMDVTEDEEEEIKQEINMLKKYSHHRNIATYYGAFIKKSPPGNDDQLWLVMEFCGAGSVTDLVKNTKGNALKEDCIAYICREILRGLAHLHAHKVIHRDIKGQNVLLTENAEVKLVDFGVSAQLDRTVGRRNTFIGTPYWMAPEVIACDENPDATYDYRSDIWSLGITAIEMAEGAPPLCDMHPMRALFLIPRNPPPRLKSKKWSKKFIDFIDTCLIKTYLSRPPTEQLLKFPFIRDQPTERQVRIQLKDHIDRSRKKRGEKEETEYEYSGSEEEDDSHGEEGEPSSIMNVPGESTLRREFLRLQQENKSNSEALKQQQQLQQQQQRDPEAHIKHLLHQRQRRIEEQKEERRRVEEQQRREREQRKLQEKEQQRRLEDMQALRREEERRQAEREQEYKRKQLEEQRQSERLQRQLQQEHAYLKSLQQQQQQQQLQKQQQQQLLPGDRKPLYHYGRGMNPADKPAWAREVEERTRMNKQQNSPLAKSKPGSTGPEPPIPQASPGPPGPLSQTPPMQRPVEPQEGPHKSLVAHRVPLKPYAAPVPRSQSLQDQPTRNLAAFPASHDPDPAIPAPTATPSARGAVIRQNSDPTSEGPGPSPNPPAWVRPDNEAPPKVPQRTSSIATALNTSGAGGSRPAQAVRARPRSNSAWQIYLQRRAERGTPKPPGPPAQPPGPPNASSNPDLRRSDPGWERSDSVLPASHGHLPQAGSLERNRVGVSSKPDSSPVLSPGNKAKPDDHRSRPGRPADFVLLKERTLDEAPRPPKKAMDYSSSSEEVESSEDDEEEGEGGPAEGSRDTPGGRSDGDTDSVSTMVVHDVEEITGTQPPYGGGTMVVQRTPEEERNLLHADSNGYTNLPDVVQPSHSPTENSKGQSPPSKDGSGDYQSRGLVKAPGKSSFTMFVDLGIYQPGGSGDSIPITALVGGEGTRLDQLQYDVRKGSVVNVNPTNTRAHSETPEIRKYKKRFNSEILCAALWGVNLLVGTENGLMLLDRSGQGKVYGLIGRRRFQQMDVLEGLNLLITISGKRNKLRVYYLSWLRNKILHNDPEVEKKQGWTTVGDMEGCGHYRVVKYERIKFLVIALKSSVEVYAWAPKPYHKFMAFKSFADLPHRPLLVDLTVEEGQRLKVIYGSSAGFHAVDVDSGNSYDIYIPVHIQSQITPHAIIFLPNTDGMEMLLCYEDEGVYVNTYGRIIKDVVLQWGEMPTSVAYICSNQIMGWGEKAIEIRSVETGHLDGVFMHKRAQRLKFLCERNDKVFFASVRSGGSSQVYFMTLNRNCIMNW
Glycogen synthase kinase-3 alpha (Homo sapiens), sequence (P49840 2-483 limits assumed): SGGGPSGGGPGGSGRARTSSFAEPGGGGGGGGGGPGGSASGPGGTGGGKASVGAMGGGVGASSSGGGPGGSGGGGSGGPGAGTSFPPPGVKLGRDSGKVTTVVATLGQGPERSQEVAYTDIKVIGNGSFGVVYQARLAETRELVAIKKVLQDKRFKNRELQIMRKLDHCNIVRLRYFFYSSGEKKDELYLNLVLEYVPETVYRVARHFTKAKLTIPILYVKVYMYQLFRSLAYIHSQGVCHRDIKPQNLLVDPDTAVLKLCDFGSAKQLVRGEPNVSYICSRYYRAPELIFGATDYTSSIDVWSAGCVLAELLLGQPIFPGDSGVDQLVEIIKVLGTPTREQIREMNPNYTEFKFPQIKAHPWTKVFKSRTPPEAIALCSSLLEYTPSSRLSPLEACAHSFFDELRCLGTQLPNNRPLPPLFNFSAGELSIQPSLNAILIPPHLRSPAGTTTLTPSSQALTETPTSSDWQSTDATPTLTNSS

Row | Compound | residual activity [1] | residual activity [2] | residual activity [3] | residual activity [4] | residual activity [5] | residual activity [6] | residual activity [7] | residual activity [8] | residual activity [9] | residual activity [10] | residual activity [11] | residual activity [12] | residual activity [13] | residual activity [14] | residual activity [15] | residual activity [16] | residual activity [17] | residual activity [18] | residual activity [19] | residual activity [20] | further results
1 | CCc1ccccc1C(=O)Nc1n[nH]c2c(C)c(F)c(C3C(C#N)=C(C)N(C)C(C)=C3C#N)cc12 [BAY-3827] | 7.5% | 100% | 36% | 71% | 55% | 100% | 95% | 88% | 90% | 100% | 100% | 100% | 99% | 100% | 100% | 100% | 100% | 100% | 100% | 55% | residual activity [21]: 95%; residual activity [22]: 74%; residual activity [23]: 100%; inhibition [24]: -7.98%; inhibition [25]: 8.27%
2 | CC1=C(C#N)C(c2ccc3c(c2)c(NC(=O)c2ccccc2C)nn3C)C(C#N)=C(C)N1 [BAY-974] | 77% | 71% | 92% | 88% | 83% | 100% | 94% | 96% | 100% | 100% | 77% | 92% | 96% | 96% | 90% | 83% | 100% | 76% | 74% | 100% | residual activity [21]: 72%; residual activity [22]: 82%; residual activity [23]: 90%; inhibition [24]: -0.8%; inhibition [25]: 6.87%
